# Test results as given in US20160361250A1, “ACTIVE INGREDIENTS STIMULATING TYPE 2 AND/OR TYPE 3 HUMAN BETA-DEFENSINS AND COSMETIC OR PHARMACEUTICAL COMPOSITIONS CONTAINING SUCH ACTIVE INGREDIENTS” (BASF Beauty Care Solutions France S.A.S., priority 2002, published 2016).
# Assays:
# hBD2 [1] = assay: Quantitative RT-PCR of hBD2 expression, 2nd step (dose-effect); format: cell-based, human; conditions: for hBD2 expression, percentage of the control: 16 h, untreated control = 100%
# Protocol: (§1) The actives are then tested on 5 concentrations (from 0.001% to max viability) in quadruplicate on normal human keratinocytes as a monolayer on 96-well culture plates, in a specific medium enriched with calcium and free of serum (CaCl2 1.7 mM) (same conditions as in example 1).
# (§2) After 16 h, the supernatants are collected and cells are dry frozen at −80° C. after rinsing in PBS.
# (§3) Total RNA are extracted using a 96-well extraction kit on silica columns and assayed using a 96-well spectrophotometer at 260 and 280 nm. RNA are diluted to 5 ng/μL.
# (§4) Quantitative RT-PCR in 96 wells on actin, hBD2 and hBD3 is initially carried out on 50 ng of RNA, using a one-step kit containing Sybrgreen, in a fluorescence thermocycler with the same primers as previously (0.5 μM). The amplification program is as follows: 50° C., 30 min; 94° C., 15 min; (94° C., 15 s; 60° C., 30 s; 72° C., 30 s)×50 cycles; 90° C., 1 min; 30° C., 1 min; 50° C. to 95° C. (10 s every ° C.); 14° C., infinite.
# (§5) A study of the fusion graphs makes it possible to verify the specificity of amplified products. The fluorescence graph as a function of the number of cycles gives the C(T) value corresponding to the number of cycles needed to obtain initiation of the fluorescence signal. The more an mRNA is expressed, the lower the C(T) value. Calculation of Sgene=(½)^C(T) for each RNA takes into consideration the exponential increase in the number of copies during amplification. The Sgene hBD2/Sgene actin and Sgene hBD3/Sgene actin ratios can be compared with those of the untreated control to give the percentage stimulation produced.
# (§6) Quantitative RT-PCR makes it possible to obtain a basal value for the defensin expression for untreated controls. The results are therefore expressed as a percentage of the control. IL8, IL1 and MIP3 cytokine levels are given as pg/mL/RNA concentration (in ng/μL).
# (§7) In the same way as in example 2, retinoic acid and retinol were tested for their capacity to stimulate hBD2 and/or hBD3.
# hBD3 [2] = assay: Quantitative RT-PCR of hBD3 expression, 2nd step (dose-effect); format: cell-based, human; conditions: for hBD3 expression, percentage of the control: 16 h, untreated control = 100%
# Protocol: as §1, §2, §3, §4, §5, §6, §7
# animals = conditions: in vivo
# human volunteers = conditions: in vivo
# hBD2 [3] = assay: Qualitative RT-PCR of hBD2 expression, 1st step of the screening method; format: cell-based; conditions: 100 μg/mL; normal human keratinocytes, 16 h
# Protocol: (§8) A 1% concentration of the actives is tested on normal human keratinocytes, as a monolayer, on 96-well culture plates, in a specific medium enriched with calcium and free of serum (final concentration 1.7 mM).
# (§9) At 80% confluence, cells are contacted with the actives (1 active per well) for 16 h. An untreated control and 2 positive controls (TNFα 100 ng/mL for hBD2 and IFNγ 100 ng/mL for hBD3) are set up in parallel on the same culture plate.
# as §2
# (§10) Total RNA are extracted using a 96-well extraction kit on silica columns and assayed using a 96-well spectrophotometer at 260 and 280 nm. RNA are diluted to 5 ng/mL.
# (§11) Qualitative one-step RT-PCR is performed on 50 ng of initial RNA in 96 wells, on actin, hBD2 and hBD3. The primers are used at a concentration of 0.5 μM and arc taken from the literature:—hBD2: sense: 5′-[…]-3′; hBD2 antisense 5′-[…]-3′ (Harder J. et al., A peptide antibiotic from human skin. Nature 1997; 387 : 861); hBD3 sense: 5′-[…]-3′; hBD3 antisense: 5′-[…]-3′; actin sense: 5′-[…]-3′; actin antisense: 5′-[…]-3′ (Harder J. et al., Isolation and characterization of human β-defensin-3, a novel human inducible peptide antibiotic. J Biol Chem 2001, 276 : 5707-5713).
# (§12) Samples are placed in a thermocycler and follow a common amplification program: 50° C., 30 min; 94° C., 2 min, (94° C., 30 s; 60° C., 30 s; 68° C., 30 s), 32 cycles for the defensins and 30 cycles for actin; 72° C., 10 min; 14° C., infinite.
# (§13) After amplification, the products are mixed at a rate of 3 μL of actin amplification products+6 μL of hBD2 amplification products+6 μL of hBD3 amplification products. 5 μL of a mixture of charge buffer and water (⅔) are added and the final 20 μL are deposited on 2% premoulded agarose gel. The samples migrate in 30 minutes and the bands are visualised under UV in a dark room then digitally photographed.
# (§14) Photos of the gels are analysed by image processing software which quantifies the intensity of the bands. As the basal level of defensin expression (untreated control) is not detectable, the intensity ratios of the hBD2/actin and hBD3/actin bands can be compared, for example with those obtained for the positive control (treated with TNFα for hBD2 and IFNγ for hBD3) and indicate any stimulation of the expression of the β-defensin in question
# (§15) Since the basal level of defensin expression is generally not detectable, stimulation of hBD2 and hBD3 is expressed as a percentage of the positive controls (TNFα for hBD2 and IFNγ for hBD3). IL8 and MIP3α levels are given as pg/mL/RNA concentration (in ng/μL).
# hBD3 [4] = assay: Qualitative RT-PCR of hBD3 expression, 1st step of the screening method; format: cell-based; conditions: 100 μg/mL; normal human keratinocytes, 16 h
# Protocol: as §9, §2, §10, §11, §12, §13, §14, §15
# MIP3α [5] = assay: ELISA of MIP3α secreted into the culture medium, 1st step; format: cell-based, human; conditions: 100 μg/mL; keratinocyte supernatant, 16 h
# Protocol: (§16) At the end of this first step, the actives having exerted an effect on β-defensin expression are selected and the supernatants corresponding to these actives are then tested using an ELISA kit in order to determine the levels of MIP3α, IL1 and IL8 secreted into the culture medium under the effect of the actives. The levels are then referred to the RNA concentration assayed in each well in order to compare results with each other.
# as §15
# IL8 [6] = assay: ELISA of IL8 secreted into the culture medium, 1st step; format: cell-based, human; conditions: 100 μg/mL; keratinocyte supernatant, 16 h
# Protocol: as §16, §15
# MIP3α [7] = assay: ELISA of MIP3α in supernatants, 2nd step; format: cell-based, human; conditions: supernatant, 16 h
# Protocol: (§17) The supernatants of the actives, whose capacity to induce defensins has been confirmed, are tested using an ELISA kit in order to assay MIP3α, IL8 and IL1α levels. These assays are performed on the same supernatant (200 μL) by carrying out a series dilution (by 1.5 to assay MIP3α and IL8, then by 2 to assay IL1). The levels are then referred to the RNA concentration assayed in each well in order to compare results with each other.
# as §6
# IL8 [8] = assay: ELISA of IL8 in supernatants, 2nd step; format: cell-based, human; conditions: supernatant, 16 h
# Protocol: as §17, §6
# IL1α = assay: ELISA of IL1α in supernatants, 2nd step; format: cell-based, human; conditions: supernatant, 16 h
# Protocol: as §17, §6
# hBD2 and/or hBD3 [9] = assay: 1st step of the screening method, overall outcome (defensin RT-PCR plus MIP3α/IL8 ELISA); format: cell-based, human; conditions: concentrations of Tables I and II
# Protocol: as §8, §9, §2, §10
# as §11, with “5707-5713). […]” for “5707-5713).”
# Photos of the gels are analysed by image processing software which quantifies the intensity of the bands. […]
# hBD2 and/or hBD3 [10] = assay: 2nd step of the screening method, overall outcome (quantitative RT-PCR plus MIP3α/IL8/IL1α ELISA); format: cell-based, human
# Protocol: The actives which best satisfied the criteria for the first step undergo a dose-effect analysis.
# as §1, §2, §3, §4, §5
# as §17, with “The levels are then referred to the RNA concentration assayed in each well in order to compare results with each other.” left out
smiles,measurement,setting,value
CC1=C(/C=C/C(C)=C/C=C/C(C)=C/CO)C(C)(C)CCC1 [Retinol],effect on hBD2 (in words),hBD2 [1]; 0.01%,weakly stimulates hBD2
same,"hBD2 expression, percentage of the control",hBD2 [1]; conc. 0.01%,168%
same,effect on hBD3 (in words),hBD3 [2]; 0.01%,strongly stimulates hBD3
same,"hBD3 expression, percentage of the control",hBD3 [2]; conc. 0.01%,17 562%
same,"irritation / allergy, primary skin irritation (in words)",animals,"not inducing any inflammatory, irritation or intolerance reaction"
same,"irritation / allergy, irritant or sensitizing potential (in words)",human volunteers,"not inducing any inflammatory, irritation or intolerance reaction"
CC/C=C\C[C@H]1C(=O)CC[C@@H]1CC(=O)O [Jasmonic Acid],"HBD2 expression, percentage of the positive control (TNFα)",hBD2 [3],7%
same,"HBD3 expression, percentage of the positive control (IFNγ)",hBD3 [4],0%
same,MIP3α level,MIP3α [5],6 pg/mL/RNA concentration (in ng/μL)
same,IL8 level,IL8 [6],25.3 pg/mL/RNA concentration (in ng/μL)
same,"hBD2 expression, percentage of the control",hBD2 [1]; conc. 100 μg/mL,86%
same,"hBD2 expression, percentage of the control",hBD2 [1]; conc. 500 μg/mL,134%
same,"hBD3 expression, percentage of the control",hBD3 [2]; conc. 100 μg/mL,477%
same,"hBD3 expression, percentage of the control",hBD3 [2]; conc. 500 μg/mL,26919%
same,MIP3α level,MIP3α [7]; conc. 100 μg/mL,4.6 pg/mL/RNA concentration (in ng/μL)
same,MIP3α level,MIP3α [7]; conc. 500 μg/mL,13.6 pg/mL/RNA concentration (in ng/μL)
same,IL8 level,IL8 [8]; conc. 100 μg/mL,37.9 pg/mL/RNA concentration (in ng/μL)
same,IL8 level,IL8 [8]; conc. 500 μg/mL,103.3 pg/mL/RNA concentration (in ng/μL)
same,IL1α level,IL1α; conc. 100 μg/mL,31.2 pg/mL/RNA concentration (in ng/μL)
same,IL1α level,IL1α; conc. 500 μg/mL,97.1 pg/mL/RNA concentration (in ng/μL)
same,satisfying the criteria for the first step (in words),hBD2 and/or hBD3 [9],stimulate hBD2 and/or hBD3 without triggering the expression of MIP3 and IL8 cytokines
same,induction of defensins 2 and/or 3 (in words),"hBD2 and/or hBD3 [10]; jasmonic acid 100 μg/mL, α-MSH as in Table III",capable of inducing defensins 2 and/or 3
same,satisfying the criteria of the invention (in words),hBD2 and/or hBD3 [10]; second step,"stimulate hBD2 and/or hBD3 without triggering the expression of MIP3, IL8 or IL1 cytokines"
CC1=C(/C=C/C(C)=C/C=C/C(C)=C/C(=O)O)C(C)(C)CCC1 [Retinoic acid],"hBD2 expression, percentage of the control",hBD2 [1]; conc. 0.005%,26%
same,"hBD3 expression, percentage of the control",hBD3 [2]; conc. 0.005%,161%
same,"irritation / allergy, primary skin irritation (in words)",animals,"not inducing any inflammatory, irritation or intolerance reaction"
same,"irritation / allergy, irritant or sensitizing potential (in words)",human volunteers,"not inducing any inflammatory, irritation or intolerance reaction"
